Data taken from ChEMBL document CHEMBL1201862, “PubChem BioAssay data set” (2004).
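Cultured in 96-well plates, cells were exposed to test compound for 48 hours across five concentrations. The concentration for 50% growth inhibition is given as GI50.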 Activity calls are given as the source filed them. No stated cut-off is given here; in the data, active = GI50 up to about 1.1 µM and inactive = higher.

Key:
Test in all cases: NCI tumour cell line growth inhibition, 48 h
786-0 = system: 786-0
CAKI-1 = system: CAKI-1
HCC 2998 = system: HCC 2998
HCT-116 = system: HCT-116
HOP-92 = system: HOP-92
HT-29 = system: HT-29
Hs-578T = system: Hs-578T
MDA-MB-231 = system: MDA-MB-231
MDA-N = system: MDA-N
NCI-H522 = system: NCI-H522
OVCAR-4 = system: OVCAR-4
OVCAR-5 = system: OVCAR-5
OVCAR-8 = system: OVCAR-8
SF-268 = system: SF-268
SF-295 = system: SF-295
SF-539 = system: SF-539
SK-MEL-5 = system: SK-MEL-5
SNB-75 = system: SNB-75
SR = system: SR
U-251 = system: U-251

Measured: GI50

O=C(O/C=C\OC1CCCC1(c1ccccc1)c1ccccc1)c1ccccc1 (stereo not given)
inactive: 786-0 4.03 µM | CAKI-1 > 46.1 µM | HCC 2998 18.7 µM | HCT-116 2.51 µM | HOP-92 2.07 µM | HT-29 3.44 µM | Hs-578T 7.05 µM | MDA-MB-231 2.51 µM | MDA-N 3.47 µM | NCI-H522 19 µM | OVCAR-4 3.15 µM | OVCAR-5 16.8 µM | OVCAR-8 3 µM | SF-268 4.05 µM | SF-295 19.2 µM | SF-539 3.66 µM | SK-MEL-5 10.8 µM | SNB-75 3.83 µM | SR 2.17 µM | U-251 3.66 µM

CC(=O)NNc1nc(C)c(C(/C=C/c2ccc3c(c2)OCO3)=N/Nc2ccccc2)s1
inactive: 786-0 > 100 µM | CAKI-1 > 100 µM | HCC 2998 > 100 µM | HCT-116 > 100 µM | HOP-92 > 100 µM | HT-29 > 100 µM | Hs-578T > 100 µM | MDA-MB-231 > 100 µM | MDA-N > 100 µM | NCI-H522 > 100 µM | OVCAR-4 > 100 µM | OVCAR-5 > 100 µM | OVCAR-8 > 100 µM | SF-268 > 100 µM | SF-295 > 100 µM | SF-539 > 100 µM | SK-MEL-5 > 100 µM | SNB-75 > 100 µM | SR > 100 µM | U-251 > 100 µM

O=C(OCc1ccccc1)N(CCCCN(CCCNC(=O)C(F)(F)F)C(=O)OCc1ccccc1)CCCNC(=O)C(F)(F)F
inactive: 786-0 > 100 µM | CAKI-1 1.56 µM | HCC 2998 > 100 µM | HCT-116 > 100 µM | HOP-92 > 100 µM | HT-29 > 28.4 µM | Hs-578T > 100 µM | MDA-MB-231 > 100 µM | MDA-N > 100 µM | NCI-H522 2.94 µM | OVCAR-4 > 100 µM | OVCAR-5 > 100 µM | OVCAR-8 > 100 µM | SF-268 > 100 µM | SF-295 > 100 µM | SF-539 > 100 µM | SK-MEL-5 > 36.8 µM | SNB-75 > 100 µM | SR > 100 µM | U-251 > 100 µM

CCCCCCOc1ccc(C(=O)N(C)O)cc1
inactive: 786-0 12.4 µM | CAKI-1 15.6 µM | HCC 2998 17.7 µM | HCT-116 14.9 µM | HOP-92 21.1 µM | HT-29 10.9 µM | Hs-578T 65.2 µM | MDA-MB-231 41.9 µM | MDA-N 27.6 µM | NCI-H522 9.86 µM | OVCAR-4 31.4 µM | OVCAR-5 67.3 µM | OVCAR-8 11.7 µM | SF-268 11.5 µM | SF-295 9.55 µM | SF-539 15 µM | SK-MEL-5 17.6 µM | SNB-75 27.3 µM | SR 6.35 µM | U-251 12.5 µM
